Patent publication US6610540B1, “Low oxygen culturing of central nervous system progenitor cells” (California Institute of Technology, priority 1998, dated 2003)

Tested on: E12 mesencephalic precursor cultures
Experiment: Dopaminergic / neuronal subtype differentiation of expanded mesencephalic precursor cultures (TH+ cell counts by immunohistochemistry)
Format: cell-based, rat
Conditions: under both oxygen conditions
Text: Culture of CNS Stem Cells. Animals were housed and treated following NIH guidelines. Cells dissected from rat embryonic lateral ganglionic eminence (E14) or mesencephalon (E12) were mechanically dissociated, plated on plastic 24-well plates (Costar) or 12 mm glass cover slips (Carolina Biologicals) precoated with polyornithine/fibronectin, and grown in defined medium with bFGF (Studer et al., 1998; Johe et al., 1996). In general, bFGF was withdrawn from the medium after 4-6 days of culture. Clonal assays were carried out in plastic 48-well plates (Costar). In some studies, recombinant human (rh)EPO, rhVEGF165 or recombinant mouse (rm)FGF8b, or their neutralizing antibodies (all from R&D Systems) were added to cultures at the following concentrations: EPO 0.5 U/ml, EPO neutralizing antibody 10 μg/ml, FGF8 250 ng/ml, FGF8b neutralizing antibody 5 μg/ml, VEGF 50 ng/ml, VEGF neutralizing antibody 0.5 μg/ml. […]
Immunohistochemistry. […] Appropriate fluorescence-tagged (Jackson Immunoresearch) or biotinylated (Vector Laboratories) secondary antibodies followed by metal-enhanced DAB reaction (Pierce) were used for visualization.
Cell Counts and Statistical Procedures. Uniform random sampling procedures were used for cell counts and quantified using the fractionator technique (Gundersen, et al., 1988). […] Data are expressed as mean±SEM.

Question: Which “effect on expanded mesencephalic precursors (dopaminergic neuron differentiation)” value does the source give for sonic hedgehog here?
Answer: Its value is “no effect”.
